# “Also recorded” adds a separate entry of the source.
# Columns and labels:
# [1] = test system: MART-127-35 epitope specific CTLs; assay: Chromium release microcytotoxicity assay; format: cell-based; conditions: % specific lysis of peptide loaded T2 cells; inhibitor 25 μM
# c-jun N-terminal kinase = conditions: cited from earlier work
# [2] = test system: c-jun phosphorylation/activation in Jurkat T cells; assay: JNK activation assay in PMA/ionomycin stimulated Jurkat cells; format: cell-based, human; conditions: PMA (10 ng/ml)/ionomycin (0.5 μM); SP600125 25 μM
# Description: FIG. 1. […] (A) Effect of the JNK inhibitor SP600125 on AICD in the MART-127-35 epitope specific CTL. Histogram represents FACS analysis of the percent of MART-127-35 epitope specific CTLs that were tetramer positive and annexin negative after restimulation with MAGE-3271-279 control peptide (M3) pulsed T2 cells or MART-127-35 peptide (M1) pulsed T2 cells either alone or re-stimulated after pre-incubation with JNK inhibitor SP600125, p38-kinase inhibitor SB203580, ERK1/2 inhibitor PD98059 or caspase-inhibitor z-VAD-fink. MAGE-3271-279. (B) JNK activation results in phosphorylation of c-Jun during AICD in CTL that is blocked by SP600125. Immunoblots show analyses of CTL extracts probed with anti-phosphor-c-Jun, anti-c-Jun, and anti-actin antibodies. […] (i) Jurkat cells were treated with PMA+ionomycin in the absence or presence of SP600125 and JNK activation (c-Jun phosphorylation) was assessed with anti-phospho-c-Jun antibody. […] (ii) Jurkat cells were treated with Staurosporine for 1 and 4 hrs in the absence (S) or presence of caspase inhibitor, z-VAD-fmk (CI), JNK inhibitor, SP600125 (SP) or ERK1/2 inhibitor PD98059 (PD) and cleavage of PARP was detected by immunoblotting, using actin as a loading control. […] Percent annexin positive cells in all samples were quantified by FACS analysis and shown below the blot […]
# [3] = test system: phosphorylated Bim in CTL; assay: Generation of short phosphorylated Bim fragment in CTL during AICD; format: cell-based, human; conditions: CTLs encountering the MART-1 peptide
# Description: FIG. 16. Mitochondrial localization of JNK in the CTL. (A)—Heavy membrane fractions from CTLs in steady state (C), restimulated by the cognate peptide (M1) and control peptide (M3) and the corresponding cytosolic fractions (S-100) were probed for the presence for JNKs. As shown, JNK preferentially localized in the membrane fraction. (B)—The generation of short pBim fragment during AICD and the effect of SP600125 on the generation of this fragment. Mart-1 epitope specific control CTLs (c), and CTLs encountering the cognate peptide (M1), or encountering a control peptide (M3) and encountering the cognate peptide in the presence of SP600125 (SP) or encountering the cognate peptide in the presence of ERK1/2 inhibitor (PD)were probed with an anti-phosphorylated Bim antibody. A phosphorylated short fragment of Bim is generated in the CTLs encountering the MART-1 peptide and this is blocked by SP600125. (C)—Western blot of whole cell lysate of CTLs showing interaction between JNK and VDAC in CTLs (c=control, M1=CTL restimulated by the cognate peptide) Anti-CD8 Ab was used as a control antibody for immunoprecipitation.
# [4] = test system: Bcl family proteins in CTL; assay: Western blot of Bcl family pro- and anti-apoptotic proteins in CTL after secondary stimulation; format: cell-based, human
# Description: (§1) FIG. 12. Effect of antigen specific secondary stimulation on mitochondrial transmembrane membrane potential (Δψm), pro- and anti-apoptotic protein and expression of cell surface molecules. (A) Differential effect on membrane polarization in Mart-1 primary CTLs (top panel) vs. Jurkat T cells (bottom panel). CTLs were incubated with T2 cells either alone or loaded with peptide. After overnight secondary exposure cells were stained with Mart-1 tetramer/CD8 and DiOC6. Histogram represents the fluorescence of DiOC6 in the gated antigen specific tetramer^+ population (top panel). Jurkat T cells were also analyzed for modulation of membrane potential after TCR-driven stimulation (bottom panel). Values represent the mean±SD of fluorescence intensity triplicates from one out of three separate experiment. *p<0.001 (One Way ANOVA). […] (C) Expression of different cell surface receptors for survival or death signal in antigen specific population upon secondary stimulation. Values on left upper corner represent the geometric mean of the fluorescence intensity for that particular marker when stimulated with T2/MAGE-3271-279 while that on right upper corner represent the geometric mean of the fluorescence intensity when stimulated with T2/MART-127-35.
# Washed cell pellets were lysed in RIPA buffer and a cytosolic fraction was prepared by spinning the lysate at 15,000 rpm. Proteins (20 μg/well) were separated on 15% SDS-PAGE, transferred onto nitrocellulose filters, probed with appropriate antibodies. Antibodies for Bcl-2, phospho Bcl-2, Bim, BCI-XL, Bax, Actin were purchased from Santa-Cruz Biotechnology, Santa-Cruz, Calif. Anti-Mcl-1 antibody was purchased from BD Pharmingen, Palo Alto, Calif. Blots were developed by HRP-tagged secondary antibody (Santa-Cruz Biotechnology, Santa-Cruz, Calif.) using a chemoluminescence kit (Amersham Biosciences, Buckinghamshire, U. K.).
# Mart-1 primary CTLs = assay: Mitochondrial transmembrane potential (DiOC6 staining); format: cell-based, human; conditions: induced by re-stimulation with cognate peptide; data not shown
# Description: as §1
smiles,measurement,setting,value
"O=C1c2ccccc2-c2n[nH]c3cccc1c23 [SP600125, anthra[1,9-cd]pyrazol-6(2H)-one]",cytotoxic function of CTLs in presence of inhibitor,[1],did not affect; also recorded: does not affect
same,Ki,c-jun N-terminal kinase,~0.19 µM
same,c-Jun activation (phosphorylation) in Jurkat cells,[2],inhibitory effect; also recorded: abrogates
same,generation/phosphorylation of short phosphorylated Bim fragment,[3],inhibitable; also recorded: blocked
same,BCI-XL expression,[4],non-selectively up regulated
same,Bcl-2 expression,[4],non-selectively up regulated
same,Mcl-1 level,[4],selectively up regulated; also recorded: increased
same,phosphorylated Bcl-2 level,[4],selectively up regulated; also recorded: increased
same,level of hyper polarization of mitochondrial transmembrane potential,Mart-1 primary CTLs,decreased
